In article PMC8719521, “Spectral, Anti-Inflammatory, Anti-Pyretic, Leishmanicidal, and Molecular Docking Studies, Against Selected Protein Targets, of a New Bisbenzylisoquinoline Alkaloid” (Frontiers in Chemistry, 2021):

How the values were obtained:
[1] = tested on: carrageenan-induced paw edema; test: Carrageenan-induced paw edema studies; format: in vivo, Albino rats; conditions: for percent inhibition of carrageenan-induced paw edema: right after the carrageenan injection, p < 0.05
Experimental: (§1) Albino rats (180–200 g) of either sex were used in all experiments. The animals were kept under standard laboratory conditions (25 °C and light/dark cycles, i.e., 12/12 h) and were fed with standard food and water ad libitum.
Albino rats of either sex (180–200 g) were used to assess anti-inflammatory activity. The animals were randomly divided into five groups with each group having six albino rats (n = 6). Pedal inflammations in albino rats of either sex were produced according to the method described by Winter et al. (1962). Group 1 was treated with normal saline (5 ml/ kg) and group 2 was treated with oxyphenylbutazone (10 mg/ kg, i.p.), while groups 3–5 were treated with compounds 1–5 (10 mg/ kg and 20 mg/ kg, i.p.). After 30 min, 0.05 ml 1% carrageenan sodium salt (BDH) was subcutaneously injected into the plantar aponeurosis tissue of the right hind paw of each rat. The inflammation was measured using a plethysmometer (Apelex, France) immediately after +3 h of carrageenan injection. The anti-inflammatory activity was calculated using the following formula: 100(1−a−x/b−y), where “b” is the mean paw volume of control rats after carrageenan injection and “y” before the injection; whereas “x” is the mean paw volume of treated rats before injection and “a” is the mean paw volume after carrageenan injection.

yeast-induced pyrexia = test: Anti-pyretic studies, brewer's yeast-induced pyrexia; format: in vivo, Albino rats; conditions: for activity against yeast-induced hyperthermia: 10 and 20 mg/kg s.c., 30, 60, and 120 min
Experimental: as §1
Albino rats of either sex weighing 180–200 g were used for anti-pyretic studies. The animals were divided into five groups with each group having six albino rats (n = 6). All the animals were given free access to food and water. Basal rectal temperature was measured using a digital clinical thermometer before injecting the yeast. Hyperthermia was induced in rats by sub-cutaneous (s.c.) injection of 20% aqueous suspension of brewer’s yeast (20 ml/ kg) in the back below the nape of the neck ([Loux et al., 1972]). Group 1 was treated with normal saline as a control, and group 2 was treated with indomethacin (10 mg/kg, s. c) as the standard drug, while the remaining groups 3–5 were treated with compound 1–5 (10 mg/ kg and 20 mg/ kg, s. c). After 24 h from the yeast injection, the rise in the rectal temperature was recorded at regular intervals of 30, 60, and 120 min after drug administration.

[2] = tested on: promastigotes of Leishmania tropica (clinical field isolate KWH23); test: Anti-leishmanial assay on promastigotes; format: cell-based; conditions: for anti-leishmanial properties: at all four tested concentrations, 48 h
Experimental: The initial culture was raised in the 5 ml M-199 medium supplemented with 10% heat-inactivated fetal bovine serum (HI-FBS), 100 μg/ ml penicillin, 100 μg/ ml streptomycin, 50 μg/ ml kanamycin, and 5 μg/ ml of hemin in a 15-ml culture flask. The culture flask was kept in an incubator at 26°C, and the medium was changed every third day. The cultures were given enough time (10–14 days) to fully develop and promastigotes to reach the metacyclic stage. The culture was then sub-passaged by pouring the contents of the flask containing the promastigotes into a centrifuge tube. The tubes were then spun in a Sigma centrifuge at 2000 rpm for 12 min. After spinning, the medium was carefully poured off leaving the pellet only. This pellet was re-suspended in the 2–4 ml growth medium, and new cultures were established. The primary culture was used for sensitivity assays, and additional cultures were cryopreserved in liquid nitrogen at −196°C for future use.
The culture of L. tropica clinical field isolate KWH23 was established from already cryopreserved collection in the Department of Zoology, University of Peshawar. The initial culture was raised in the 5 ml M-199 medium supplemented with 10% heat-inactivated fetal bovine serum (HI-FBS), 100 μg/ ml penicillin, 100 μg/ ml streptomycin, 50 μg/ ml kanamycin, and 5 μg/ ml of hemin in a 15-ml culture flask. Two experiments were run at a time under the same conditions in 96-well flat-bottom plates. The promastigotes were counted in culture suspension by using the improved Neubauer hemocytometer. From the viable promastigotes bulk culture (4 × 10^6/ ml), 1 × 10^5 promastigotes/well in the 200 µL fresh M-199 medium were seeded in 96-well plates. Four different concentrations for each compound were applied, and one row of 12 wells was kept as a control with the growth medium only. The 96-well plates were incubated at 26°C for 48 h. After 48 h, the number of promastigotes in each well was counted microscopically using the improved Neubauer hemocytometer.

Compound | percent inhibition of carrageenan-induced paw edema ([1]; 10 mg/kg of chondrofolinol) | percent inhibition of carrageenan-induced paw edema ([1]; 20 mg/kg of chondrofolinol) | paw volume in carrageenan-induced paw edema ([1]; 10 and 20 mg/kg of body weight) | rectal temperature in yeast-induced pyrexia (yeast-induced pyrexia; 10 and 20 mg/kg of body weight) | activity against yeast-induced hyperthermia (yeast-induced pyrexia) | anti-pyretic potential (yeast-induced pyrexia; at both concentrations (10 and 20 mg/kg)) | inhibition of the promastigotes of Leishmania tropica ([2]; 48 h incubation) | anti-leishmanial properties [2]
COc1cc2c3cc1Oc1c(O)ccc(c1O)CC1c4c(cc(OC)c(OC)c4Oc4ccc(cc4)CC3N(C)CC2)CCN1C (centres unmarked) [Compound 1, chondrofolinol] | 32.12% | 53.34% | significantly reduced | significantly reduced | significantly active | milder anti-pyretic potential | ~100% | strong anti-leishmanial properties
COc1ccc2cc3[n+](cc2c1OC)CCc1cc2c(cc1-3)OCO2 [Compound 2, berberine] |  |  |  |  | significantly active |  |  | strong anti-leishmanial properties
COc1cc2c(cc1OC)-c1cc3ccc(OC)c(OC)c3c[n+]1CC2 [Compound 4, palmatine] |  |  |  |  | significantly active |  |  | strong anti-leishmanial properties
COc1ccc2c(c1OC)C(C(Cl)(Cl)Cl)N1CCc3cc4c(cc3C1=C2)OCO4 (centres unmarked) [Compound 5, 8-trichloromethyldihydroberberine] |  |  |  |  | significantly active |  |  | strong anti-leishmanial properties
